Results published in US20240252488A1 (KOREA RESEARCH INSTITUTE OF CHEMICAL TECHNOLOGY, priority 2020, published 2024).

Legend:
FADD−/− Jurkat cells = assay: Necroptosis inhibition assay, TNF-α-induced necroptosis (CellTiter-Glo 2.0); format: cell-based, human; settings: TNF-α 15 ng/mL; for Necroptosis inhibition assay (Rescue %) 1 μM: compound 1 μM; for Necroptosis inhibition assay (Rescue %) 10 μM: compound 10 μM
Summary of the method: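 Necroptosis induced by 15 ng/mL TNF-α (final) for 20–24 h at 37 °C, after a 30 min room-temperature pretreatment of FADD-deficient Jurkat cells with 0.1, 1 or 10 μM compound. ATP-based luminescence gave viability, from which inhibition rate and cytotoxicity were derived.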

MLKL [1] = target: T1, MLKL (Homo sapiens, UniProt Q8NB16); assay: MLKL degradation assay in HepG2 cell line (western blot); format: cell-based; parameters: endogenous in cells; host or cells: HepG2 or HaCaT; settings: cell line not given; for Degradation assay (Degradation %) 1 μM: compound 1 μM; for Degradation assay (Degradation %) 10 μM: compound 10 μM
T1 sequence (Q8NB16 1-471): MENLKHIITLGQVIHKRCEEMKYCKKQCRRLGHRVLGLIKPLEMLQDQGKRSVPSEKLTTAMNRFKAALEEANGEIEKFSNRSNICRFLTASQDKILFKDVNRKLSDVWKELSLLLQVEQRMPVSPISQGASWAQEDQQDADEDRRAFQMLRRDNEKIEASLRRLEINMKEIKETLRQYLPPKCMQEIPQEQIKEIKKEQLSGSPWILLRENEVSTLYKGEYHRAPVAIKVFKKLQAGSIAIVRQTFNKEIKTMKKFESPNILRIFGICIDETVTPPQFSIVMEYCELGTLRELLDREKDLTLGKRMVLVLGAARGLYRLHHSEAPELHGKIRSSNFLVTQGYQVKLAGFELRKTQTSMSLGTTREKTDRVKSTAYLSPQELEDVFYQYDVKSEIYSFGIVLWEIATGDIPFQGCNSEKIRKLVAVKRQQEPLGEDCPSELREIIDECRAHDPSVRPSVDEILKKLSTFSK
Summary of the method: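 Western blot chemiluminescence of MLKL in equal-protein lysates (10-15 μg, BCA-adjusted). Before lysis, HepG2 cells were exposed to 1 or 10 μM (final) test compound for 20-24 h at 37 °C.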

MLKL [2] = target: T1, MLKL; assay: Measurement of binding affinity with MLKL receptor (competitive binding assay, Kd); parameters: made in house; host or cells: HEK 293 cell line (T7 phage in E. coli BL21-derived host is also described)
Summary of the method: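 qPCR of MLKL eluted from liganded beads served as the read-out, from which Kd was derived. The protein was made in HEK 293 cells with a DNA tag, and test compounds competed with the bead-bound ligand at 0.9% final DMSO.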

Row | Compound | Necroptosis inhibition assay (Rescue %) 1 μM (FADD−/− Jurkat cells) | Necroptosis inhibition assay (Rescue %) 10 μM (FADD−/− Jurkat cells) | Degradation assay (Degradation %) 1 μM (MLKL [1]) | Degradation assay (Degradation %) 10 μM (MLKL [1]) | Kd (MLKL [2]) | Necroptosis inhibition assay (Rescue %) 1 μM (FADD−/− Jurkat cells; FADD−/− Jurkat cells) | Necroptosis inhibition assay (Rescue %) 10 μM (FADD−/− Jurkat cells; FADD−/− Jurkat cells)
1 | Nc1ncc(-c2cnn([C@H]3CCN(CCOCCOCCNC(=O)CNc4ccc5c(c4)C(=O)N(C4CCC(=O)NC4=O)C5=O)C3)c2)nc1C(=O)OC(C(=O)Nc1ccc(F)cc1)c1ccccc1 (stereo partly drawn) [TDH-264, 2-((4-fluorophenyl)amino)-2-oxo-1-phenylethyl 3-amino-6-(1-((3S)-1-(2-(2-(2-(2-((2-(2,6-dioxopiperidin-3-yl)-1,3-dioxoisoindolin-5-yl)amino)acetamido)ethoxy)ethoxy)ethyl)pyrrolidin-3-yl)-1H-pyrazol-4-yl)pyrazine-2-carboxylate] | 23.38% | 40.72% | 65.05% | 53.98% | 3.4 nM | – | –
2 | Nc1ncc(-c2cnn(C3CCN(CCOCCOCCOCCNC(=O)COc4cccc5c4C(=O)N(C4CCC(=O)NC4=O)C5=O)CC3)c2)nc1C(=O)O[C@@H](C(=O)Nc1ccc(F)cc1)c1ccccc1 (stereo partly drawn) [TDH-155, (R)-2-((4-fluorophenyl)amino)-2-oxo-1-phenylethyl 3-amino-6-(1-(1-(1-((2-(2,6-dioxopiperidin-3-yl)-1,3-dioxoisoindolin-4-yl)oxy)-2-oxo-6,9,12-trioxa-3-azatetradecan-14-yl)piperidin-4-yl)-1H-pyrazol-4-yl)pyrazine-2-carboxylate] | 31.1% | 64.6% | 31.35% | 63.85% | 9.5 nM | – | –
3 | Nc1ncc(-c2cnn(C3CCN(C4CC5(CCN(CC6CCN(c7ccc8c(c7)C(=O)N(C7CCC(=O)NC7=O)C8=O)CC6)CC5)C4)CC3)c2)nc1C(=O)O[C@@H](C(=O)Nc1ccc(F)cc1)c1ccccc1 (stereo partly drawn) [TDH-472, (R)-2-((4-fluorophenyl)amino)-2-oxo-1-phenylethyl 3-amino-6-(1-(1-(7-((1-(2-(2,6-dioxopiperidin-3-yl)-1,3-dioxoisoindolin-5-yl)piperidin-4-yl)methyl)-7-azaspiro[3.5]nonan-2-yl)piperidin-4-yl)-1H-pyrazol-4-yl)pyrazine-2-carboxylate] | – | – | 50.63% | 69.94% | 1.6 nM | 27.45% | 1.07%
4 | Nc1ncc(-c2cnn(C3CCN(CCOCCOCCOCCNC(=O)CNc4ccc5c(c4)C(=O)N(C4CCC(=O)NC4=O)C5=O)CC3)c2)nc1C(=O)O[C@@H](C(=O)Nc1ccc(F)cc1)c1ccccc1 (stereo partly drawn) [TDH-144, (R)-2-((4-fluorophenyl)amino)-2-oxo-1-phenylethyl 3-amino-6-(1-(1-(1-((2-(2,6-dioxopiperidin-3-yl)-1,3-dioxoisoindolin-5-yl)amino)-2-oxo-6,9,12-trioxa-3-azatetradecan-14-yl)piperidin-4-yl)-1H-pyrazol-4-yl)pyrazine-2-carboxylate] | 15.23% | 68.71% | 58.79% | 86.28% | 2.5 nM | – | –
5 | Nc1ncc(-c2cnn(C3CCN(CCOC4CCN(C(=O)C5CCN(c6cccc7c6C(=O)N(C6CCC(=O)NC6=O)C7=O)CC5)CC4)CC3)c2)nc1C(=O)OC(C(=O)Nc1ccc(F)cc1)c1ccccc1 (centres unmarked) [TDH-247, 2-((4-fluorophenyl)amino)-2-oxo-1-phenylethyl 3-amino-6-(1-(1-(2-((1-(1-(2-(2,6-dioxopiperidin-3-yl)-1,3-dioxoisoindolin-4-yl)piperidine-4-carbonyl)piperidin-4-yl)oxy)ethyl)piperidin-4-yl)-1H-pyrazol-4-yl)pyrazine-2-carboxylate] | 40.99% | 33.69% | 64.32% | 45.04% | 4.6 nM | – | –
6 | Nc1ncc(-c2cnn(C3CCN(C(=O)CCC4CCN(C(=O)C5CCN(c6ccc7c(c6)C(=O)N(C6CCC(=O)NC6=O)C7=O)CC5)CC4)CC3)c2)nc1C(=O)O[C@@H](C(=O)Nc1ccc(F)cc1)c1ccccc1 (stereo partly drawn) [TDH-418, (R)-2-((4-fluorophenyl)amino)-2-oxo-1-phenylethyl 3-amino-6-(1-(1-(3-(1-(1-(2-(2,6-dioxopiperidin-3-yl)-1,3-dioxoisoindolin-5-yl)piperidine-4-carbonyl)piperidin-4-yl)propanoyl)piperidin-4-yl)-1H-pyrazol-4-yl)pyrazine-2-carboxylate] | – | – | 79.05% | 58.33% | 4 nM | 28.11% | 17.31%
7 | Nc1ncc(-c2cnn(C3CCN(CCCN4CC5CN(C(=O)COc6ccc7c(c6)C(=O)N(C6CCC(=O)NC6=O)C7=O)CC5C4)CC3)c2)nc1C(=O)O[C@@H](C(=O)Nc1ccc(F)cc1)c1ccccc1 (stereo partly drawn) [TDH-466, (R)-2-((4-fluorophenyl)amino)-2-oxo-1-phenylethyl 3-amino-6-(1-(1-(3-(5-(2-((2-(2,6-dioxopiperidin-3-yl)-1,3-dioxoisoindolin-5-yl)oxy)acetyl)hexahydropyrrolo[3,4-c]pyrrol-2(1H)-yl)propyl)piperidin-4-yl)-1H-pyrazol-4-yl)pyrazine-2-carboxylate] | – | – | 60.76% | 86.28% | 0.41 nM | 54.2% | 26.69%
8 | Nc1ncc(-c2cnn(C3CCN(C(=O)CCC4CCN(C(=O)C5CCN(c6cccc7c6C(=O)N(C6CCC(=O)NC6=O)C7=O)CC5)CC4)CC3)c2)nc1C(=O)O[C@@H](C(=O)Nc1ccc(F)cc1)c1ccccc1 (stereo partly drawn) [TDH-417, (R)-2-((4-fluorophenyl)amino)-2-oxo-1-phenylethyl 3-amino-6-(1-(1-(3-(1-(1-(2-(2,6-dioxopiperidin-3-yl)-1,3-dioxoisoindolin-4-yl)piperidine-4-carbonyl)piperidin-4-yl)propanoyl)piperidin-4-yl)-1H-pyrazol-4-yl)pyrazine-2-carboxylate] | – | – | 87.84% | 63.85% | 3.5 nM | 24.41% | 14.37%
9 | Nc1ncc(-c2cnn(C3CCN(C(=O)CCC4CCN(C(=O)CC5CCN(c6ccc7c(c6)C(=O)N(C6CCC(=O)NC6=O)C7=O)CC5)CC4)CC3)c2)nc1C(=O)O[C@@H](C(=O)Nc1ccc(F)cc1)c1ccccc1 (stereo partly drawn) [TDH-430, (R)-2-((4-fluorophenyl)amino)-2-oxo-1-phenylethyl 3-amino-6-(1-(1-(3-(1-(2-(1-(2-(2,6-dioxopiperidin-3-yl)-1,3-dioxoisoindolin-5-yl)piperidin-4-yl)acetyl)piperidin-4-yl)propanoyl)piperidin-4-yl)-1H-pyrazol-4-yl)pyrazine-2-carboxylate] | – | – | 65.96% | 36.66% | 2.2 nM | 15.88% | 14.13%
10 | Nc1ncc(-c2cnn(C3CCN(C4CC5(CCN(CC6CCN(C(=O)C7CN(C8=CC(=O)N(C9CCC(=O)NC9=O)C8=O)C7)CC6)CC5)C4)CC3)c2)nc1C(=O)O[C@@H](C(=O)Nc1ccc(F)cc1)c1ccccc1 (stereo partly drawn) [TDH-534, (R)-2-((4-fluorophenyl)amino)-2-oxo-1-phenylethyl 3-amino-6-(1-(1-(7-((1-(1-(1-(2,6-dioxopiperidin-3-yl)-2,5-dioxo-2,5-dihydro-1H-pyrrol-3-yl)azetidine-3-carbonyl)piperidin-4-yl)methyl)-7-azaspiro[3.5]nonan-2-yl)piperidin-4-yl)-1H-pyrazol-4-yl)pyrazine-2-carboxylate] | – | – | 49.96% | 24.88% | 0.24 nM | 21.33% | 22.25%
